{
  "source": "patent US10597388B2",
  "about": "“Pyridazinone herbicides” (FMC CORPORATION, priority 2014, dated 2020)",
  "test_in_all_cases": "Test E greenhouse herbicide test, pre- and postemergence",
  "type_in_all_cases": "in vivo",
  "conditions_in_all_cases": "Preemergence",
  "key": {"[1]": {"test_system": "surinam grass (Brachiaria decumbens)", "how_it_was_run": "(§1)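 Greenhouse pots; preemergence on silt loam, postemergence on plants 1- to 4-leaf (2 to 18 cm) grown in peat, vermiculite and nutrient medium. Test chemicals formulated in non-phytotoxic solvent with surfactant. Ratings taken after 14 to 21 d.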"}, "[2]": {"test_system": "ragweed (common ragweed, Ambrosia elatior)", "how_it_was_run": "as §1"}, "[3]": {"test_system": "momingglory (Ipomoea coccinea)", "how_it_was_run": "as §1"}, "[4]": {"test_system": "horseweed (Conyza canadensis)", "how_it_was_run": "as §1"}, "[5]": {"test_system": "soybean (Glycine max)", "how_it_was_run": "as §1"}, "[6]": {"test_system": "field bindweed (Convolvulus arvensis)", "how_it_was_run": "as §1"}, "[7]": {"test_system": "crabgrass, Brazilian (Brazilian crabgrass, Digitaria horizontalis)", "how_it_was_run": "as §1"}, "[8]": {"test_system": "nightshade (eastern black nightshade, Solanum ptycanthum)", "how_it_was_run": "as §1"}, "[9]": {"test_system": "panicum, fall (fall panicum, Panicum dichotomiflorum)", "how_it_was_run": "as §1"}, "[10]": {"test_system": "goosegrass (Eleusine indica)", "how_it_was_run": "as §1"}, "[11]": {"test_system": "foxtail, giant (giant foxtail, Setaria faberii)", "how_it_was_run": "as §1"}, "[12]": {"test_system": "arrowleaf sida (Sida rhombifolia)", "how_it_was_run": "as §1"}, "[13]": {"test_system": "johnsongrass (Sorghum halepense)", "how_it_was_run": "as §1"}, "[14]": {"test_system": "pigweed, palmer (palmer pigweed, Amaranthus palmeri)", "how_it_was_run": "as §1"}, "[15]": {"test_system": "barnyardgrass (Echinochloa crus-galli)", "how_it_was_run": "as §1"}, "[16]": {"test_system": "crabgrass, large (large crabgrass, Digitaria sanguinalis)", "how_it_was_run": "as §1"}, "[17]": {"conditions": "62 g ai/ha, scale 0 to 100 (0 no effect, 100 complete control)"}, "[18]": {"conditions": "125 g ai/ha, scale 0 to 100 (0 no effect, 100 complete control)"}, "[19]": {"conditions": "16 g ai/ha, scale 0 to 100, 0 no effect, 100 complete control"}, "[20]": {"conditions": "31 g ai/ha, scale 0 to 100, 0 no effect, 100 complete control"}},
  "data": [
    {"smiles": "COC(=O)Oc1c(C)nn(C)c(=O)c1-c1c(C)sc2ccc(C)cc12", "note": "[Compound 80]", "values": [
      {"measurement": "Plant response rating, Surinam Grass", "setting": "[1]; [17]", "value": 20},
      {"measurement": "Plant response rating, Surinam Grass", "setting": "[1]; [18]", "value": 75},
      {"measurement": "Plant response rating, Surinam Grass", "setting": "[1]; [19]", "value": 0},
      {"measurement": "Plant response rating, Surinam Grass", "setting": "[1]; [20]", "value": 10},
      {"measurement": "Plant response rating, Ragweed", "setting": "[2]; [17]", "value": 100},
      {"measurement": "Plant response rating, Ragweed", "setting": "[2]; [18]", "value": 100},
      {"measurement": "Plant response rating, Ragweed", "setting": "[2]; [19]", "value": 70},
      {"measurement": "Plant response rating, Ragweed", "setting": "[2]; [20]", "value": 70},
      {"measurement": "Plant response rating, Morningglory", "setting": "[3]; [17]", "value": 70},
      {"measurement": "Plant response rating, Morningglory", "setting": "[3]; [18]", "value": 75},
      {"measurement": "Plant response rating, Morningglory", "setting": "[3]; [19]", "value": 0},
      {"measurement": "Plant response rating, Morningglory", "setting": "[3]; [20]", "value": 65},
      {"measurement": "Plant response rating, Horseweed", "setting": "[4]; [17]", "value": 100},
      {"measurement": "Plant response rating, Horseweed", "setting": "[4]; [18]", "value": 100},
      {"measurement": "Plant response rating, Horseweed", "setting": "[4]; [19]", "value": 100},
      {"measurement": "Plant response rating, Horseweed", "setting": "[4]; [20]", "value": 100},
      {"measurement": "Plant response rating, Soybean", "setting": "[5]; [17]", "value": 0},
      {"measurement": "Plant response rating, Soybean", "setting": "[5]; [18]", "value": 0},
      {"measurement": "Plant response rating, Soybean", "setting": "[5]; [19]", "value": 0},
      {"measurement": "Plant response rating, Soybean", "setting": "[5]; [20]", "value": 0},
      {"measurement": "Plant response rating, Field Bindweed", "setting": "[6]; [17]", "value": 70},
      {"measurement": "Plant response rating, Field Bindweed", "setting": "[6]; [18]", "value": 100},
      {"measurement": "Plant response rating, Field Bindweed", "setting": "[6]; [19]", "value": 20},
      {"measurement": "Plant response rating, Field Bindweed", "setting": "[6]; [20]", "value": 25},
      {"measurement": "Plant response rating, Crabgrass, Brazil", "setting": "[7]; [17]", "value": 90},
      {"measurement": "Plant response rating, Crabgrass, Brazil", "setting": "[7]; [18]", "value": 100},
      {"measurement": "Plant response rating, Crabgrass, Brazil", "setting": "[7]; [19]", "value": 65},
      {"measurement": "Plant response rating, Crabgrass, Brazil", "setting": "[7]; [20]", "value": 75},
      {"measurement": "Plant response rating, Nightshade", "setting": "[8]; [17]", "value": 100},
      {"measurement": "Plant response rating, Nightshade", "setting": "[8]; [18]", "value": 98},
      {"measurement": "Plant response rating, Nightshade", "setting": "[8]; [19]", "value": 75},
      {"measurement": "Plant response rating, Nightshade", "setting": "[8]; [20]", "value": 75},
      {"measurement": "Plant response rating, Panicum, Fall", "setting": "[9]; [17]", "value": 95},
      {"measurement": "Plant response rating, Panicum, Fall", "setting": "[9]; [18]", "value": 98},
      {"measurement": "Plant response rating, Panicum, Fall", "setting": "[9]; [19]", "value": 80},
      {"measurement": "Plant response rating, Panicum, Fall", "setting": "[9]; [20]", "value": 90},
      {"measurement": "Plant response rating, Goosegrass", "setting": "[10]; [17]", "value": 30},
      {"measurement": "Plant response rating, Goosegrass", "setting": "[10]; [18]", "value": 20},
      {"measurement": "Plant response rating, Goosegrass", "setting": "[10]; [19]", "value": 0},
      {"measurement": "Plant response rating, Goosegrass", "setting": "[10]; [20]", "value": 0},
      {"measurement": "Plant response rating, Foxtail, Giant", "setting": "[11]; [17]", "value": 80},
      {"measurement": "Plant response rating, Foxtail, Giant", "setting": "[11]; [18]", "value": 85},
      {"measurement": "Plant response rating, Foxtail, Giant", "setting": "[11]; [19]", "value": 0},
      {"measurement": "Plant response rating, Foxtail, Giant", "setting": "[11]; [20]", "value": 50},
      {"measurement": "Plant response rating, Arrowleaf Sida", "setting": "[12]; [17]", "value": 35},
      {"measurement": "Plant response rating, Arrowleaf Sida", "setting": "[12]; [18]", "value": 25},
      {"measurement": "Plant response rating, Arrowleaf Sida", "setting": "[12]; [19]", "value": 0},
      {"measurement": "Plant response rating, Arrowleaf Sida", "setting": "[12]; [20]", "value": 0},
      {"measurement": "Plant response rating, Johnsongrass", "setting": "[13]; [17]", "value": 80},
      {"measurement": "Plant response rating, Johnsongrass", "setting": "[13]; [18]", "value": 80},
      {"measurement": "Plant response rating, Johnsongrass", "setting": "[13]; [20]", "value": 0},
      {"measurement": "Plant response rating, Pigweed, Palmer", "setting": "[14]; [17]", "value": 70},
      {"measurement": "Plant response rating, Pigweed, Palmer", "setting": "[14]; [18]", "value": 70},
      {"measurement": "Plant response rating, Pigweed, Palmer", "setting": "[14]; [19]", "value": 20},
      {"measurement": "Plant response rating, Pigweed, Palmer", "setting": "[14]; [20]", "value": 35},
      {"measurement": "Plant response rating, Barnyardgrass", "setting": "[15]; [17]", "value": 20},
      {"measurement": "Plant response rating, Barnyardgrass", "setting": "[15]; [18]", "value": 20},
      {"measurement": "Plant response rating, Barnyardgrass", "setting": "[15]; [19]", "value": 0},
      {"measurement": "Plant response rating, Barnyardgrass", "setting": "[15]; [20]", "value": 0},
      {"measurement": "Plant response rating, Crabgrass, Large", "setting": "[16]; [17]", "value": 35},
      {"measurement": "Plant response rating, Crabgrass, Large", "setting": "[16]; [18]", "value": 35},
      {"measurement": "Plant response rating, Crabgrass, Large", "setting": "[16]; [19]", "value": 0},
      {"measurement": "Plant response rating, Crabgrass, Large", "setting": "[16]; [20]", "value": 0}
    ]}
  ]
}
